Data on 1 compound can be found in patent US20260069693A1, “UROLITHINS AND T-CELL MEDIATED IMMUNE RESPONSE” (priority 2022, published 2026).

For data set [1] the following is noted: commercially-available supplements containing UA; cited from earlier work.
Data set [2] relates to FoxP3+ T regulatory cells. As to conditions: cited from earlier work.
A further data set has as its system APTK-OVA tumors. Description: adoptive transfer of UA-conditioned OT-1 T cells into mice bearing APTK-OVA tumors. The data set is classed as in vivo, Rag1^−/− mice. The text has this: Adoptive cell transfer (ACT) represents the infusion of antigen-specific leukocytes with direct antitumor activity, yet identification, selection and expansion of lymphocyte subsets harboring optimal antitumor qualities remains one of the most crucial challenges (Rosenberg and Restifo, 2015). ACT benefits especially from minimally differentiated cells due to their improved survival and long-term potential to generate unexhausted effector cells (Luca Gattinoni et al; Mo et al., 2021; Roberto et al., 2015). In particular, CD8^+ T cells restricted in a stem-like state have been associated with enhanced tumor suppressive properties upon adoptive cell transfer (Enrico Lugli et al; Verma et al., 2021). […] The inventors cultured T cells from OT-1 donor mice (FIG. 3A) for 48 hours in the presence of UA or vehicle control, followed by adoptive transfer into immunodeficient Rag1^−/− mice. […] Moreover, consistent with an improved memory response, animals receiving UA-pretreated T cells contained less Tim3^HiPD1^Hi terminally exhausted CD8^+ T cells in the TME (FIG. 3I). Thus, UA augments immune-mediated antitumor memory upon adoptive cell transfer.
For adoptive cell transfer transfer, purified splenic T cell from OT1 mice were isolated and activated using aCD3/aCD28 stimulation beads for 48 h. After magnetic bead removal, 1×10^6 T of activated T cell were intravenously injected into Rag1^−/− recipients. To study survival of transferred T cells, stimulated OT-1 T cells were injected into mice without tumors. Subsequently, after 7 days, spleens were isolated and splenocytes were stained for the CD8^+ subsets as described below. To understand antitumor immunity conferred by transferred OT-1 lymphocytes, cells were injected into mice carrying APTK-OVA tumors 10 days after subcutaneous organoid transplantation. Tumor growth was assessed as described above. Mice were kept under regular chow food for the T cell adoptive transfer experiment and sacrificed collectively when maximum tumor diameter extended 1.5 cm.
Tumors were minced and digested with Tumor & Tissue Dissociation Reagent (BD Horizon) for 30 min. The remaining organ pieces were filtered through a 70 μm cell strainer. Cells were then washed with PBS 1% BSA and 2 mM EDTA. Immune cells were enriched on a 30%/40%/75% Percoll gradient after a 1700 rpm 17 min centrifugation. […]

Setting [3] is: UA-T cell transfer vs DMSO treated OT-I T cells.

With `O=c1oc2cc(O)ccc2c2ccc(O)cc12` [UA, Urolithin A], in data set [1], the “bioavailability profile in humans” value was “favorable bioavailability profile” and the safety in humans entry is reported as “deemed safe”. Also, the “FoxP3+ T regulatory cells” value in data set [2] is on record as “expanding”. Further, in the data set with APTK-OVA tumors (setting [3]), the “CD62L expression in CD8+ TIL” value is “remained unchanged”, the “expression of CD44 in CD8+ TIL” value is reported as “lower expression” and the “number of TCF1Hi CD8+ tumor infiltrating T cells” value is listed as “higher number”. Also, the “tumor suppression (growth, final tumor weight)” value in the data set with APTK-OVA tumors (UA-conditioned (25 μM, 48 h) vs control OT-I T cells) is reported as “more substantial tumor suppression”. Besides, the “Tim3HiPD1Hi terminally exhausted CD8+ T cells in the TME” value with APTK-OVA tumors (UA-pretreated vs DMSO treated OT-I T cells) is given as “less”.
